Consider three compounds from patent US20260284138A1, “METHODS OF MODULATING THE EPITHELIAL-MESENCHYMAL TRANSITION” (RS Oncology, LLC, priority 2023, published 2026).

Series [1] deals with HM cells. Put plainly: Cell viability assay of HM cells. In kind it is cell-based, human. The procedure: (§1) FIG. 8A show BAP1 protein expression in immortalized mesothelial (LP9), pleural Meso (HM, MI), and peritoneal Meso (Pet-Gar) cell lines. […] FIG. 8B show EC50 values for TS in normal and MM cell lines (*p<0.05, **p<0.01, ***p<0.001, ****p <0.0001, n=4 biological replicates) FIG. 8C show protein western blots of BAP1 and GAPDH in HM scramble control (SCR) and BAP1 siRNA expressing (siBAP1) cells. FIG. 8D show cell viability curves of cells treated with TS 48 hours (n=3).
ZSS>10 indicates synergy between the two compounds.
TS synergy with ER is independent of ferrostatin sensitive MOA.
Knockdown of SLC7A11 potentiates TS activity. […] PRX3 crosslinking is increased in the SLC7A11 KD samples.

In series [2] the test system is PRX3. Put plainly: PRX3 crosslinking by reducing SDS-PAGE and western blot. In kind it is cell-based, human. From the text: PRX3 is the primary mitochondrial peroxidase required for H2O2 clearance from the mitochondria induced by metabolic, tumorigenic, and drug treatment inputs. During the metabolism of H2O2, PRX3 forms an intramolecular disulfide bond that orients the second active site for TS-dependent covalent crosslinking, inactivating the protein leading to increased oxidative stress and tumor cell death.
(§2) Erastin potentiates PRX3 crosslinking and ROS generation by TS. FIG. 10A show Western blot from HM cells treated with TS (1 μM), erastin (ER, 2.5 μM) or TS+ER for 24 hours. Samples were run under reducing conditions by SDS-PAGE. FIG. 10B show quantification of PRX3 dimer (TS-crosslink) to PRX3 monomer (unmodified PRX3) from protein western blots as in A (n=2 biological replicates). FIG. 10C show ROS levels in cells treated with TS, ER, or TS+ER for 24 hours (n=2 biological replicates, 3 technical replicates). FIG. 10D show protein western blot of cells cultured in media+/−cystine and treated with TS or ER. PRX3 crosslinking by TS is increased in cells cultured in cystine free (−) media.
On the technique in general: In western blotting, separated proteins are transferred to a membrane and probed.

For series [3], the system named is BAP1. Put plainly: BAP1 protein expression by western blot. The settings on record: TS 4 μM; LP9, HM, MI, Pet-Gar cell lines. The class given is cell-based, human. The procedure: as §1
For series [4], the system named is human biphasic mesothelioma cell lines. Nature of the series: RNA-Seq / RT-qPCR gene expression in mesothelioma cells treated with TS. The class given is cell-based. The procedure: Described herein are methods to evaluate changes in gene expression in malignant mesothelioma cells (H-meso cell line) treated with thiostrepton (HM-TS) for 16 hrs and compare to HM-TSR (TS_tolerant cells) grown in the presence of […] TS for several weeks. Biological triplicates were generated, RNA extracted, and RNA integrity evaluated. Cell lysates and cDNA were evaluated for known gene changes by RT-qPCR prior to library builds. Libraries were generated using the SMARTer® Stranded RNA-Seq Kit HT from Takara, pooled and analyzed on the Illumina HiSeq 1500 using a rapid run dual lane SE sequencing flow cell. Each library yielded an average of […] mapped reads.
Spatial multiregional sampling of adjacent, intra-tumour E (7) vs S (12) regions from 7 patients with bi-phasic mesothelioma was followed by whole exome, transcriptome and 100-plex immunofluorescence analysis (employing cytokeratin-based cell segmentation). Machine learning (random forests) was employed to infer E to S evolutionary trajectories at the genomic, transcriptomic and protein levels. Biphasic human mesothelioma cells were treated with the PRX3 inhibitor RSO-021 (thiostrepton) and gene-expression changes were evaluated by RT-qPCR.
E and S transition requires Mitochondrial peroxiredoxin 3 (PRX3). […] EMT, hypoxia and glycolysis associated transcription were reduced in RSO-021 treated cells (FIG. 4B). […] Further, MAPK13 (p38) expression is increased in TS treated cells (FIG. 4F). p38 negatively regulates TEAD signaling while TEAD promotes EMT and tumorigenesis. […] TGFb is a master regulator of EMT. VGLL4 inhibits TEAD transcription (FIG. 4H). […] Mesothelin (MSLN) is exclusively expressed in epithelioid MM (FIG. 5A). TS resistant cells increase MSLN expression, indicating a switch to an epithelioid phenotype. EMT is a primary driver in the Epithelioid to sarcomatoid transition (FIG. 5B).
For orientation: In qPCR the cycle at which signal appears reflects the starting amount.

Series [5] in a line: Preclinical animal studies, tolerability. In kind it is in vivo. From the text:
(§3) RSO-021 is a PRX3 inhibitor that inactivates PRX3 through direct covalent adduction of active site cysteine residues, in turn, inducing oxidative stress to levels incompatible with tumor cell survival.

Series [6] relates to cytokine levels in pleural effusion. Put plainly: Phase 1/2 clinical trial: cytokine levels in pleural effusion by ELISA. The settings on record: pleural effusion pre- and post-treatment, weekly intrapleural administration. In kind it is in vivo, human. From the text: FIGS. 7A-7B show administration of RSO-021 and effect on cytokine levels. […] Prior to each dose patients will have pleural effusion drained to dryness per standard of care. After each administration, the IPC is secured until next RSO-021 dosing time point. […] Absolute values as determined following ELISA are shown from 7 patients enrolled on the trial.
RSO-021 is a PRX3 inhibitor that was investigated in a first-in-human phase ½ clinical trial, recruiting patients with malignant pleural effusion (MPE) arising from mesothelioma or other solid tumors. Mesothelioma cells rely on buffering of mitochondrial oxidative stress through the expression and activity of mitochondrial PRX3, which is covalently inactivated by RSO-021. Inactivation of PRX3 by RSO-021 leads to increased oxidative stress and tumor cell death. RSO-021 may be administered weekly via an intrapleural catheter. Cytokine levels in pleural effusion drainages were measured by ELISA assays. Tumor explants were grown following surgical resection of mesothelioma tumors. RNA sequencing of MM cell lines was conducted. […] RNA sequencing of cells derived from pre-and post-treated MPE aims to identify RSO-021 induced transcriptional changes and their association with clinical activity. […]
(In an ELISA, binding on a coated surface is turned into a signal by an enzyme label.)

Series [7] relates to patient derived explants (PDEs). Nature of the series: Gene set enrichment analysis of patient derived explants treated with TS. In kind it is cell-based, human. The settings on record: PDEs treated with 10 μM of TS vs untreated. The text has this: Mesothelioma, a lethal cancer associated with asbestos exposure, lacks effective drug therapy particularly in the relapsed treatment setting. Epithelial-to-mesenchymal transition (EMT) confers an aggressive sarcomatoid phenotype capable of invasion, metastasis, and drug resistance. Pharmacological targeting of EMT could favorably alter the progression and treatment of mesothelioma. Mesothelioma cells rely on buffering of mitochondrial oxidative stress through the expression and activity of mitochondrial peroxiredoxin 3 (PRX3), which is covalently inactivated by the inhibitor RSO-021 (Thiostrepton, TS). To better understand the pharmacodynamics of TS, transcriptomic profiles of drug sensitive and resistant biphasic mesothelioma cell lines were generated. […] Lastly, downregulation of EMT by TS was determined in a cohort of TS treated mesothelioma surgical explants. In summary, PRX3 is a clinically actionable drug target, inhibition of which correlates with EMT modulation.

Series [8] deals with mitochondrial PRX3. Nature of the series: Preclinical PRX3 inhibition in transformed cells. In kind it is cell-based.
Source text: as §3

The subject of series [9] is HM-TSR cells. Put plainly: Cell viability assay of TS-resistant HM-TSR cells. In kind it is cell-based, human. The settings on record: TS+ER 48 hours. The procedure:
TS-resistant cells over-express SLC7A11 and are re-sensitized to TS by Erastin (ER). HM cells were dosed with TS by repetitive drug treatment with a short 24-48 hr recovery period. […] Development of a drug-tolerant cell line with tolerance at […] after 8 months. […] The shift in sensitivity of the HM-TSR-TS line to the HM-TSR-TS/ER line.

Series [10] deals with HM cells. Nature of the series: ROS levels in treated cells. In kind it is cell-based, human. The settings on record: ER or TS+ER, 24 hours. The procedure: as §2

The structures appear in SMILES notation.

For `CCOC(=O)c1ccc(NC2CCCCC2)c(N)c1` [Fer-1, Ferrostatin], the “effect on TS/ER cytotoxic synergy” value in [1] (48 hours) is “does not block”. The “effect on ER cytotoxicity” value in series [1] (48 hours, FIG. 11A) was “blocks”. In addition, the “effect on PRX3 crosslinking by TS or TS+ER” value in series [2] (cells treated +/- Fer-1, FIG. 11C) is on record as “does not alter”.

Consider `C=C(NC(=O)C(=C)NC(=O)c1csc(C2=N[C@@H]3c4csc(n4)[C@H]4NC(=O)c5csc(n5)[C@H]([C@](C)(O)[C@@H](C)O)NC(=O)[C@H]5CSC(=N5)/C(=C/C)NC(=O)[C@H]([C@@H](C)O)NC(=O)c5csc(n5)[C@]3(CC2)NC(=O)[C@H](C)NC(=O)C(=C)NC(=O)[C@H](C)NC(=O)[C@H]([C@@H](C)CC)N[C@@H]2C=Cc3c([C@H](C)O)cc(nc3[C@H]2O)C(=O)O[C@@H]4C)n1)C(N)=O` [TS, Thiostrepton], for which, in series [3], the BAP1 protein expression result was “does not alter”. Moreover, the “TS activity in relation to BAP1 expression” value in [1] (BAP1 siRNA vs scramble, TS 48 hours) is listed as “independent of BAP1 expression”. The “TS activity on knockdown of SLC7A11” value in [1] (HM cells, SLC7A11 siRNA) is listed as “potentiates”. Also, the “EMT, hypoxia and glycolysis associated transcription” value in series [4] (GSEA, treated vs control cells, FIG. 4B) is “reduced”. The VISTA expression result in series [4] (RSO-021 treated cells, FIG. 4D) is reported as “upregulated”. Further, the “MAPK13 (p38) expression” value in series [4] (TS treated cells, FIG. 4F) is on record as “increased”. Further, the “TGFb1 and TGFb2 expression” value in series [4] (TS treated cells, FIG. 4G) was “downregulated”. Further, the “Additional TEAD targets EGFR, DKK1, WNT5B, SLC7A5, and WNT5A” value in [4] (TS treatment, FIG. 4I) is recorded as “downregulated”. Besides, the “TEAD target genes, TGF-β and EMT associated genes including CDH2” value in [4] (biphasic mesothelioma cells, FIG. 4A) is reported as “downregulated”. The “mesothelin (MSLN) expression” value in series [4] (biphasic mesothelioma cells, FIG. 4A/4D) is “upregulated”. Also, the “ROS response and apoptosis signaling” value in series [4] (differential transcriptomic analysis) is listed as “upregulation”. Moreover, in [4] (transcriptomic profiles), the “expression of mesothelioma specific EMT genes Col5A, mesothelin, and VISTA” value is recorded as “altered expression”. The tolerability result in series [5] is reported as “well-tolerated”. In series [6], the “cytokine levels including Resistin, IL-8 and IL-6” value is on record as “significant changes”. Also, in series [7], the “epithelial mesenchymal transition genes” value was “downregulated”. Besides, in series [8], the “selectivity of mitochondrial PRX3 inhibition” value is recorded as “selectively inhibits”. In series [2] (SLC7A11 KD samples, FIG. 12C), the PRX3 crosslinking result is on record as “increased”. Also, the “PRX3 crosslinking by TS” value in series [2] (cells cultured in cystine free (−) media) was “increased”. Besides, the “modified PRX3 (PRX3-TS)” value in [2] (reducing SDS-PAGE and western blotting) was “dose-dependent irreversible increase”.

In the case of `CCOc1ccccc1-n1c(C(C)N2CCN(C(=O)COc3ccc(Cl)cc3)CC2)nc2ccccc2c1=O` (stereo not shown) [Erastin, erastin], the “sensitivity of TS-resistant cells to TS” value in series [9] is “re-sensitized”. The “effect on ROS generation by TS” value in [10] is “potentiates”. The “effect on PRX3 crosslinking by TS” value in [2] (HM cells, TS 1 μM, erastin 2.5 μM, 24 hours) is listed as “potentiates”.
